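In this assay, cells in 96-well plates receive the compound at five concentrations for 48 hours. Endpoints are linearly interpolated between the surrounding concentrations. Abbreviation: GI50, concentration required for 50% inhibition of growth. At the TGI there is no net growth.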
Columns and labels:
Assay in all cases: NCI tumour cell line growth inhibition, 48 h
[1] = system: A549 NSCLC
[2] = system: EKVX NSCLC
[3] = system: IGROV1 ovarian
[4] = system: M14 melanoma
[5] = system: MDA-MB-435
[6] = system: NCI-H522 lung
[7] = system: OVCAR-3 ovarian
[8] = system: SK-MEL-5 melanoma
[9] = system: U251 CNS
[10] = system: SK-MEL-2 melanoma

SMILES: C/C(=N\Nc1nc2ccccc2[nH]1)c1cc2ccccc2cn1
- TGI [1]: > 100 µM
- TGI [2]: 1.35 µM
- TGI [3]: 1.13 µM
- TGI [4]: 0.357 µM
- TGI [5]: 1.1 µM
- TGI [6]: 1.13 µM
- TGI [7]: 0.911 µM
- TGI [8]: 1.6 µM
- TGI [9]: 0.863 µM

SMILES: C/C(Nc1ccc(Cl)cc1Cl)=C1/CCOC1=O
- TGI [1]: > 100 µM
- TGI [2]: 73.9 µM
- TGI [3]: > 100 µM
- TGI [5]: > 100 µM
- TGI [6]: > 100 µM
- TGI [7]: > 100 µM
- TGI [8]: > 100 µM
- TGI [9]: 66.5 µM

SMILES: C#CCC1(C(=O)OCC)C(=O)c2ccccc2N(C)C1=O (stereo not drawn)
- TGI [2]: > 100 µM
- TGI [3]: > 100 µM
- TGI [4]: > 100 µM
- TGI [6]: 27.3 µM
- TGI [7]: > 100 µM
- TGI [10]: > 100 µM
- TGI [8]: > 100 µM
- TGI [9]: > 100 µM

SMILES: CSc1ccc(/C=C2\N=C(c3ccccc3)N(/N=C/c3cc4cc(C)ccc4nc3Cl)C2=O)cc1
- TGI [1]: 59 µM
- TGI [2]: > 100 µM
- TGI [3]: 35 µM
- TGI [4]: 38.4 µM
- TGI [5]: 26.1 µM
- TGI [7]: 48.7 µM
- TGI [10]: 43.7 µM
- TGI [8]: 32.9 µM
- TGI [9]: 51.2 µM

SMILES: Nc1nc(Cl)cc(NCC2(O)CCCC2)n1
- TGI [1]: > 100 µM
- TGI [2]: > 100 µM
- TGI [3]: > 100 µM
- TGI [5]: > 100 µM
- TGI [6]: > 100 µM
- TGI [7]: > 100 µM
- TGI [10]: > 100 µM
- TGI [8]: > 100 µM
- TGI [9]: > 100 µM

SMILES: Cc1[nH]c(=O)[nH]c(=S)c1C(=O)Nc1cccc2cc3ccccc3cc12
- TGI [2]: > 100 µM
- TGI [3]: > 100 µM
- TGI [4]: > 100 µM
- TGI [5]: > 100 µM
- TGI [7]: > 100 µM
- TGI [10]: > 100 µM
- TGI [8]: > 100 µM
- TGI [9]: > 100 µM

SMILES: CC1OC2OC3C(OCC(O)C3O)OC(=O)[C@]34CCC(C)(C)CC3C3=CCC5[C@@]6(C)C[C@H](O)[C@H](OC7OC(CO)C(O)C(O)C7OC7OCC(OC(=O)CC(C)(O)CC(=O)OC1C(OC1OC(CO)C(O)C(O)C1O)C2O)C(O)C7O)[C@@](C)(CO)C6CC[C@@]5(C)[C@]3(C)CC4 (stereo partly drawn)
- TGI [1]: 13.5 µM
- TGI [3]: 16.2 µM
- TGI [4]: 15 µM
- TGI [5]: 11.4 µM
- TGI [6]: 22.5 µM
- TGI [7]: 19.3 µM
- TGI [10]: 13.5 µM
- TGI [8]: 28.8 µM
- TGI [9]: 18.6 µM

SMILES: CC(C)(C)C1CC[C@H](O)[C@H]([C@H](O)CC2CC(=O)N(c3ccccc3)C(=O)C2)C1 (stereo partly drawn)
- TGI [1]: > 100 µM
- TGI [2]: > 100 µM
- TGI [3]: > 100 µM
- TGI [4]: > 100 µM
- TGI [5]: > 100 µM
- TGI [6]: > 100 µM
- TGI [7]: > 100 µM
- TGI [8]: > 100 µM
- TGI [9]: > 100 µM

SMILES: CC(=O)/C(=C\c1ccc(Cl)c(Cl)c1)C(=O)C(C)CN(C)C (stereo not drawn)
- TGI [1]: 35.7 µM
- TGI [2]: 27.8 µM
- TGI [3]: 4.88 µM
- TGI [4]: 24.2 µM
- TGI [5]: 12.3 µM
- TGI [7]: 16.1 µM
- TGI [8]: 25.3 µM
- TGI [9]: 12.9 µM

SMILES: CC(=O)Nc1cc(Nc2cc(=O)[nH]c(=O)[nH]2)ccc1C
- TGI [1]: > 100 µM
- TGI [2]: > 100 µM
- TGI [3]: > 100 µM
- TGI [4]: > 100 µM
- TGI [5]: > 100 µM
- TGI [7]: > 100 µM
- TGI [8]: > 100 µM
- TGI [9]: > 100 µM

SMILES: CC(=O)O[C@H]1CC[C@@]2(C)[C@H](CC[C@@H]3[C@@H]2CC[C@]2(C)[C@@H](c4ccc(=O)oc4)C[C@H]4O[C@]342)C1
- TGI [1]: 0.759 µM
- TGI [2]: 2.39 µM
- TGI [3]: 11.3 µM
- TGI [6]: 1.23 µM
- TGI [7]: 1.67 µM
- TGI [10]: 6.49 µM
- TGI [8]: 1.51 µM
- TGI [9]: 4.6 µM

SMILES: O=C(CC1Sc2ccccc2NC1=O)Nc1ccc(Cl)cc1 (stereo not drawn)
- TGI [1]: > 100 µM
- TGI [2]: > 100 µM
- TGI [3]: > 100 µM
- TGI [4]: > 100 µM
- TGI [6]: > 100 µM
- TGI [7]: > 100 µM
- TGI [10]: > 100 µM
- TGI [8]: > 100 µM
- TGI [9]: > 100 µM

SMILES: O=[N+]([O-])c1cccnc1-n1cnc2ccccc21
- TGI [1]: > 100 µM
- TGI [2]: > 100 µM
- TGI [3]: > 100 µM
- TGI [4]: > 100 µM
- TGI [5]: > 100 µM
- TGI [7]: > 100 µM
- TGI [10]: > 100 µM
- TGI [8]: > 100 µM
- TGI [9]: > 100 µM

SMILES: O=C(c1ccco1)N(C(=S)OC12CC3CC(CC(C3)C1)C2)c1ccccc1
- TGI [1]: > 100 µM
- TGI [2]: 50.1 µM
- TGI [4]: 43.7 µM
- TGI [5]: 90.3 µM
- TGI [6]: 51.8 µM
- TGI [7]: 77.4 µM
- TGI [10]: 40.9 µM
- TGI [8]: 35.5 µM
- TGI [9]: 59.5 µM

SMILES: Cc1cc2c(c(=O)n1C)SCC2
- TGI [1]: > 100 µM
- TGI [3]: > 100 µM
- TGI [4]: > 100 µM
- TGI [5]: > 100 µM
- TGI [6]: > 100 µM
- TGI [7]: > 100 µM
- TGI [10]: > 100 µM
- TGI [8]: > 100 µM
- TGI [9]: > 100 µM

SMILES: CC(=O)CC(=O)CCC(=O)O
- TGI [1]: > 100 µM
- TGI [2]: > 100 µM
- TGI [3]: > 100 µM
- TGI [4]: > 100 µM
- TGI [6]: > 100 µM
- TGI [10]: > 100 µM
- TGI [9]: > 100 µM

SMILES: CCOC(=O)c1cn(C)c(=S)n2c1nc1ccccc12
- TGI [1]: > 100 µM
- TGI [2]: > 100 µM
- TGI [3]: > 100 µM
- TGI [4]: > 100 µM
- TGI [5]: > 100 µM
- TGI [7]: > 100 µM
- TGI [10]: > 100 µM
- TGI [8]: > 100 µM
- TGI [9]: > 100 µM

SMILES: Cc1ccc(S(=O)(=O)N(CC(O)COc2ccccc2)c2ccc(F)cc2F)cc1 (stereo not drawn)
- TGI [1]: 26.9 µM
- TGI [2]: 35.7 µM
- TGI [4]: 34.1 µM
- TGI [5]: 31.4 µM
- TGI [7]: 34.4 µM
- TGI [10]: 30.4 µM
- TGI [8]: 27.8 µM
- TGI [9]: 27.5 µM

SMILES: O=C(Nc1cccc(-n2cc(-c3ccncc3)c(-c3ccc(O)c(Cl)c3)n2)c1)c1cccc(C(F)(F)F)c1
- GI50 [1]: 2.5 µM
- TGI [1]: > 100 µM
- GI50 [3]: 9.88 µM
- TGI [3]: > 100 µM
- GI50 [4]: 2.72 µM
- TGI [4]: > 100 µM
- GI50 [5]: 3.57 µM
- TGI [5]: > 100 µM
- GI50 [6]: 2.49 µM
- TGI [6]: > 100 µM
- GI50 [10]: 4.54 µM
- TGI [10]: 38.1 µM
- GI50 [8]: 2.38 µM
- TGI [8]: 16.2 µM
- GI50 [9]: 2.14 µM
- TGI [9]: > 100 µM

SMILES: COC(=O)CCCC(=O)NC1=C(NCc2ccccc2)C(=O)c2ccccc2C1=O
- TGI [1]: > 100 µM
- TGI [2]: > 100 µM
- TGI [3]: > 100 µM
- TGI [4]: > 100 µM
- TGI [5]: > 100 µM
- TGI [6]: > 100 µM
- TGI [7]: 90.6 µM
- TGI [10]: > 100 µM
- TGI [9]: > 100 µM

SMILES: C=CC1CN2CCC1CC2C(O)c1ccnc2ccccc12 (stereo not drawn)
- TGI [1]: > 100 µM
- GI50 [2]: > 100 µM
- TGI [2]: > 100 µM
- GI50 [3]: > 100 µM
- TGI [3]: > 100 µM
- GI50 [4]: > 100 µM
- TGI [4]: > 100 µM
- TGI [5]: > 100 µM
- TGI [7]: > 100 µM
- TGI [10]: > 100 µM
- TGI [8]: > 100 µM
- TGI [9]: > 100 µM

SMILES: O=C1C=CC(=O)c2c(Cl)ccc(O)c21
- TGI [1]: > 100 µM
- TGI [2]: 43 µM
- TGI [3]: 21 µM
- TGI [6]: 26.8 µM
- TGI [7]: 29.1 µM
- TGI [10]: 97.5 µM
- TGI [8]: 33.1 µM
- TGI [9]: > 100 µM

— PubChem BioAssay (NCI)
